Laboratory results published in PubChem BioAssay AID2060609 (Molecular Pharmacology Branch, DTP, NCI, 2025).

System: 855422-203-R-J1-PDC complex spheroids, viability
Assay: Anticancer human tumor 855422-203-R-J1-PDC patient-derived bladder carcinoma cell line growth inhibition [CLK]
Details: for IC50: curve of first compound; for viability, T/C: stronger effect = lower value; active = viability on the fitted dose curve at most 10% of control; inactive = the rest
Description: A high-throughput screen of multi-cell type tumor spheroids was designed to identify active combinations of […] and targeted small molecules. Complex spheroids include a stromal component modeled by human endothelial cells (HUVEC) and fibroblasts modeled by human mesenchymal stem cells (MSCs). The concentration ranges selected for each drug and investigational agent were based upon clinically achievable concentrations if the clinical Cmax of the agent was known.
Compounds. The drugs and investigational agents: cirtuvivint (SM08502; NSC835563), CC-671 (NSC850746), vemurafenib (NSC761431), tapotoclax (NSC804041), sotorasib (NSC818433), adagrasib (NSC831453), MRTX-1133 (NSC836407), BAY2416964 (NSC825713), copanlisib (NSC816437), inavolisib (NSC800729), abemaciclib (NSC768073), osimertinib (NSC779217), entinostat (NSC756642), eltanexor (KPT-8602, NSC794443), venetoclax (NSC766270), ceralasertib (NSC777638), bortezomib (NSC756655), olaparib (NSC753686), talazoparib (NSC767125), alisertib (NSC759677), peposertib (NSC802822), gemcitabine (NSC613327), 5-fluorouracil (NSC19893), SN-38 (NSC673596), oxaliplatin (NSC266046), paclitaxel (NSC125973), and doxorubicin (NSC123127), were obtained from the National Cancer Institute (NCI) Developmental Therapeutics Program Chemical Repository. The FDA-approved anticancer drug set is available from the Developmental Therapeutics Program at https://dtp.cancer.gov/organization/dscb/obtaining/available plates.htm. […] The stock solutions were prepared in dimethyl sulfoxide (DMSO, Sigma-Aldrich, St. Louis, MO, cat. D2650), except for the platinum complexes which were prepared in saline (Quality Biological, Gaithersburg, MD, cat. 114-055-101), at 800-fold the tested concentration and stored at -70 degrees C prior to their use. All drugs and investigational agents were tested over a range starting from a high concentration at or near the clinical Cmax and decreasing in half-log increments. If the clinical Cmax for an agent had not been determined, the highest concentration tested was 10 microM.
Cell Culture. All cells were maintained in an incubator at 37 degrees C and 5% CO2 with 95% humidity. The PDC lines were cultured according to standard operating procedures established by the NCI PDMR. Briefly, all PDCs were thawed and cultured in Matrigel-coated flasks prepared with a working solution of 1X Ham's F-12 nutrient mix, without supplementation (Invitrogen, Waltham, MA, cat. 11765054), 100 U/mL penicillin-streptomycin (Invitrogen, cat. 15140122), and 2.5% Matrigel (Corning Inc., Corning, NY, cat. 354248) for the first three passages. The 947758-054-R-J2-PDC line was cultured in 6B/Colon 1A media, which includes advanced DMEM/F-12 (Thermo Fisher Scientific, cat. 12634028), 10 mM HEPES (Thermo Fisher Scientific, cat. 15630080), 1X GlutaMAX supplement (Thermo Fisher Scientific, cat. 35050061), 0.1 mg/mL primocin (InvivoGen, cat. ant-pm-2), 10% defined fetal bovine serum, heat inactivated (HyClone Laboratories Inc., cat. SH30070.03HI), 1.25 mM N-Acetyl-L-cysteine (Sigma-Aldrich, cat. A9165), 10 mM nicotinamide (Sigma-Aldrich, cat. N0636), 1X B-27 supplement (Thermo Fisher Scientific, cat. 17504044), 1X N-2 supplement (Thermo Fisher Scientific, cat. 17502048), and 10 microM Y-27632 dihydrochloride (Tocris Bioscience, cat. 1254). The 876862-298-R-J1-PDC was cultured in 6E media, which includes all 6B/Colon 1A media components plus 50% L-WRN conditioned media (ATCC, cat. CRL-3276), 50 ng/mL recombinant human EGF recombinant protein (hEGF; Thermo Fisher Scientific, cat. PHG0311), 10 ng/mL recombinant human fibroblast growth factor 10 (hGFG-10; PeproTech, cat. 100-26), 1 ng/mL recombinant human fibroblast growth factor 2 (hFGF-2; PeproTech, cat. 100-18B), and 1 µM prostaglandin E2 (PGE2; Tocris, cat. 2296). The 227483-062-R1-J1-PDC line was cultured in Panc media, containing all 6E components except hFGF-2, with the addition of 500 nM SB-431542 (Selleckchem, cat. S1067) and 10 nM gastrin (Tocris, cat. 3006). […]

[1] = second compound 0.0316 µM, first compound 0.0316 µM
[2] = second compound 0.0316 µM, first compound 0.1 µM
[3] = second compound 0.0316 µM, first compound 0.316 µM
[4] = second compound 0.0316 µM, first compound 1 µM
[5] = second compound 0.0316 µM, first compound 3.16 µM
[6] = second compound 0.0316 µM, first compound 10 µM
[7] = second compound 0.1 µM, first compound 0.0316 µM
[8] = second compound 0.1 µM, first compound 0.1 µM
[9] = second compound 0.1 µM, first compound 0.316 µM
[10] = second compound 0.1 µM, first compound 1 µM
[11] = second compound 0.1 µM, first compound 3.16 µM
[12] = second compound 0.1 µM, first compound 10 µM
[13] = second compound 0.316 µM, first compound 0.0316 µM
[14] = second compound 0.316 µM, first compound 0.1 µM
[15] = second compound 0.316 µM, first compound 0.316 µM
[16] = second compound 0.316 µM, first compound 1 µM
[17] = second compound 0.316 µM, first compound 3.16 µM
[18] = second compound 0.316 µM, first compound 10 µM
[19] = second compound 1 µM, first compound 0.0316 µM
[20] = second compound 1 µM, first compound 0.1 µM
[21] = second compound 1 µM, first compound 0.316 µM
[22] = second compound 1 µM, first compound 1 µM
[23] = second compound 1 µM, first compound 3.16 µM
[24] = second compound 1 µM, first compound 10 µM
[25] = second compound 3.16 µM, first compound 0.0316 µM
[26] = second compound 3.16 µM, first compound 0.1 µM
[27] = second compound 3.16 µM, first compound 0.316 µM
[28] = second compound 3.16 µM, first compound 1 µM
[29] = second compound 3.16 µM, first compound 3.16 µM
[30] = second compound 3.16 µM, first compound 10 µM
[31] = second compound 10 µM, first compound 0.0316 µM
[32] = second compound 10 µM, first compound 0.1 µM
[33] = second compound 10 µM, first compound 0.316 µM
[34] = second compound 10 µM, first compound 1 µM
[35] = second compound 10 µM, first compound 3.16 µM
[36] = second compound 10 µM, first compound 10 µM
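Note: spheroids exposed to drugs for seven days before readout.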
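Throughout, for viability, T/C: 100% = DMSO vehicle control wells.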

CC(CO)NC(=O)c1cc(-c2ccc(Cl)cc2)nn(-c2cnn(C)c2)c1=O (stereo unspecified) + CN1CCN(c2cc(C(=O)Nc3cc4cc(-c5cnn(C)c5)ccc4cn3)ccn2)CC1
< 31.6 nM: IC50 (second compound 0.316 µM) | IC50 (second compound 1 µM) | IC50 (second compound 3.16 µM) | IC50 (second compound 10 µM)
active: viability, T/C [19] 0.24% | viability, T/C [20] 0.3% | viability, T/C [21] 0.22% | viability, T/C [22] 0.28% | viability, T/C [23] 0.25% | viability, T/C [24] 0.24% | viability, T/C [25] 2.96% | viability, T/C [26] 0.65% | viability, T/C [27] 0.95% | viability, T/C [28] 0.69% | viability, T/C [29] 1.1% | viability, T/C [30] 0.53% | viability, T/C [31] 0.44% | viability, T/C [32] 0.45% | viability, T/C [33] 0.33% | viability, T/C [34] 1.12% | viability, T/C [35] 1.09% | viability, T/C [36] 0.43%
inactive: viability, T/C [1] 85.4% | viability, T/C [2] 97.9% | viability, T/C [3] 95.9% | viability, T/C [4] 104% | viability, T/C [5] 101% | viability, T/C [6] 90.2% | viability, T/C [7] 72.6% | viability, T/C [8] 83.2% | viability, T/C [9] 77.1% | viability, T/C [10] 93.9% | viability, T/C [11] 90.5% | viability, T/C [12] 69.4% | viability, T/C [13] 8.6% | viability, T/C [14] 12.4% | viability, T/C [15] 11.9% | viability, T/C [16] 12.4% | viability, T/C [17] 13.4% | viability, T/C [18] 9.74%
> 10000 nM: IC50 (second compound 0.0316 µM) | IC50 (second compound 0.1 µM)

C#Cc1c(F)ccc2cc(O)cc(-c3ncc4c(N5CC6CCC(C5)N6)nc(OCC56CCCN5CC(F)C6)nc4c3F)c12 (stereo unspecified) + CNC(=O)c1ccc(Nc2nc(OC3CCCC3)c3c(-c4ccc5nc(C)oc5c4)c[nH]c3n2)c(OC)c1
> 10000 nM: IC50 (second compound 0.0316 µM)
392 nM: IC50 (second compound 0.1 µM)
< 31.6 nM: IC50 (second compound 0.316 µM) | IC50 (second compound 1 µM) | IC50 (second compound 3.16 µM) | IC50 (second compound 10 µM)
inactive: viability, T/C [1] 95.4% | viability, T/C [2] 111% | viability, T/C [3] 100% | viability, T/C [4] 87.2% | viability, T/C [5] 132% | viability, T/C [6] 84.9% | viability, T/C [7] 60.2% | viability, T/C [8] 51.1% | viability, T/C [9] 56.7% | viability, T/C [10] 39.6% | viability, T/C [11] 32.7% | viability, T/C [12] 22% | viability, T/C [13] 21.2% | viability, T/C [14] 24.9% | viability, T/C [15] 24.8% | viability, T/C [16] 22.9% | viability, T/C [17] 24.3% | viability, T/C [18] 21.8% | viability, T/C [19] 19.8% | viability, T/C [20] 21.5% | viability, T/C [21] 19.5% | viability, T/C [22] 22.1% | viability, T/C [23] 23.2% | viability, T/C [24] 19.3% | viability, T/C [25] 20.6% | viability, T/C [26] 18.1% | viability, T/C [27] 17.3% | viability, T/C [28] 22% | viability, T/C [29] 25.4% | viability, T/C [30] 13.3% | viability, T/C [31] 21.8% | viability, T/C [32] 22.4% | viability, T/C [33] 24.1% | viability, T/C [34] 18.9% | viability, T/C [35] 17.3% | viability, T/C [36] 14.8%

C=C(F)C(=O)N1CCN(c2nc(OCC3CCCN3C)nc3c2CCN(c2cccc4cccc(Cl)c24)C3)CC1CC#N (stereo unspecified) + CNC(=O)c1ccc(Nc2nc(OC3CCCC3)c3c(-c4ccc5nc(C)oc5c4)c[nH]c3n2)c(OC)c1
2500 nM: IC50 (second compound 0.0316 µM)
active: viability, T/C [6] 0.16% | viability, T/C [12] 0.11% | viability, T/C [17] 10.1% | viability, T/C [18] 0.07% | viability, T/C [23] 8.14% | viability, T/C [24] 0.07% | viability, T/C [29] 9.57% | viability, T/C [30] 1.06% | viability, T/C [36] 8.64%
< 31.6 nM: IC50 (second compound 0.1 µM) | IC50 (second compound 0.316 µM) | IC50 (second compound 1 µM) | IC50 (second compound 3.16 µM) | IC50 (second compound 10 µM)
inactive: viability, T/C [1] 83.1% | viability, T/C [2] 88.6% | viability, T/C [3] 81.8% | viability, T/C [4] 132% | viability, T/C [5] 38.1% | viability, T/C [7] 24.2% | viability, T/C [8] 21% | viability, T/C [9] 23.7% | viability, T/C [10] 27.5% | viability, T/C [11] 10.2% | viability, T/C [13] 16.6% | viability, T/C [14] 19.6% | viability, T/C [15] 19.9% | viability, T/C [16] 18.7% | viability, T/C [19] 21.5% | viability, T/C [20] 15.8% | viability, T/C [21] 19.4% | viability, T/C [22] 18.6% | viability, T/C [25] 18.5% | viability, T/C [26] 14.9% | viability, T/C [27] 14.8% | viability, T/C [28] 20.5% | viability, T/C [31] 18.1% | viability, T/C [32] 21.6% | viability, T/C [33] 21% | viability, T/C [34] 16.9% | viability, T/C [35] 7.87%
